Data set [1] relates to DENV-2 16681 strain. In words: microbe, parasite or virus in culture. The format is cell-based, Dengue virus. To be noted: for EC50: DENV-2 16681 eGFP, Vero cells, MOI 0.5, 3 days; for SI: SI=CC50/EC50, DENV-2 antiviral assay.
Data set [2] can be described thus: in vitro. The note with it: African green monkey.

The term EC50 denotes the concentration that produces a half-maximal response. Consider `COc1cc(NC(C(=O)N2CCc3ccc(OC(F)(F)F)cc32)c2ccc(Cl)cc2OC)cc(OCCC(C)(C)C(=O)O)c1` (single isomer, unassigned) [Compound 18A], for which, in data set [1], the half-maximal effective concentration (EC50) worked out at 9.9 nM and the SI was found to be 1160. The CC50 in data set [2] amounted to 12 µM.

On to `COc1cc(NC(C(=O)N2CCc3cc(OC)c(C(F)(F)F)cc32)c2ccc(Cl)cc2)cc(OCCC(C)C(=O)O)c1` (single isomer, unassigned) [Compound 20A], for which, in data set [1], the 50% effective concentration (EC50) worked out at 440 nM and the SI is given as 27. Also, the CC50 in data set [2] worked out at 12 µM.

In data set [1], `COc1cc(NC(C(=O)N2CCc3cc(OC)c(C(F)(F)F)cc32)c2ccc(Cl)cc2)cc(OCCC(C)(C)C(=O)O)c1` (single isomer, unassigned) [Compound 21A] displayed a 50% effective concentration (EC50) of 16 nM and an SI of 687. In data set [2], this compound registered a CC50 of 11 µM.

For the compound `COc1cc(NC(C(=O)N2CCc3cc(F)c(OC(F)(F)F)cc32)c2ccc(Cl)cc2)cc(OCC2CC2C(=O)O)c1` (single isomer, unassigned) [Compound 26A, (1R*,2R*)-2-((3-((1-(4-chlorophenyl)-2-(5-fluoro-6-(trifluoromethoxy)indolin-1-yl)-2-oxoethyl)amino)-5-methoxyphenoxy)methyl)-cyclopropanecarboxylic Acid], in data set [1], the EC50 was 0.1 nM and the SI was more than 12200. Also, the CC50 in data set [2] is 14 µM.

In data set [1], `COc1cc(NC2CC(C(=O)O)C2)cc(NC(C(=O)N2CCc3ccc(OC(F)(F)F)cc32)c2ccc(Cl)cc2)c1` (single isomer, unassigned) [Compound 33A] displayed an EC50 of 13 nM and an SI of 1110. This compound also showed a CC50 in data set [2] of 17 µM.

In the case of `COc1cc(NC(C(=O)N2CCc3ccc(OC(F)(F)F)cc32)c2ccc(Cl)cc2)cc(OCC2CC2C(=O)O)c1` (stereo not drawn) [Compound 6AA], in data set [1], a half-maximal effect (EC50) was put at 0.74 nM and the SI came out at 8870. The compound further gave a CC50 in data set [2] of 8.3 µM.

As for `COc1cc(NC(C(=O)N2CCc3ccc(OC(F)(F)F)cc32)c2ccc(Cl)cc2)cc(OC2CC(C(=O)O)C2)c1` (stereo not drawn) [Compound 7], in data set [1], the concentration for a half-maximal effect (EC50) is 0.49 nM and the SI is reported as 14600. This compound also had a CC50 in data set [2] of 12 µM.

In data set [1], `COc1cc(NC(C(=O)N2CCc3ccc(OC(F)(F)F)cc32)c2ccc(Cl)cc2)cc(OCC2CC(C(=O)O)C2)c1` (stereo not drawn) [Compound 10] came in with an EC50 of 0.27 nM and an SI of 44900. In addition, the CC50 in data set [2] was determined as 12 µM.

On to `COc1cc(NC(C(=O)N2CCc3ccc(OC(F)(F)F)cc32)c2ccc(Cl)cc2OC)cc(OCC2CC2C(=O)O)c1` (stereo not drawn) [Compound 19AA], for which, in data set [1], it took 10 nM to reach a half-maximal effect (EC50) and the SI is on record as 1030. Besides, in data set [2], the CC50 is 11 µM.

In data set [1], `COc1cc(NC(C(=O)N2CCc3cc(OC)c(C(F)(F)F)cc32)c2ccc(Cl)cc2)cc(OCC2CC2C(=O)O)c1` (stereo not drawn) [Compound 22AA] returned a half-maximal effective concentration (EC50) of 16 nM and an SI of 798. The compound further had a CC50 in data set [2] of 13 µM.

Take `COc1cc(NC(C(=O)N2CCc3cc(OC)c(C(F)(F)F)cc32)c2ccc(Cl)cc2)cc(O[C@H]2C[C@@H](C(=O)O)C2)c1` (stereo partly drawn) [Compound 23, (1s,3s)-3-(3-((1-(4-chlorophenyl)-2-(5-methoxy-6-(trifluoromethyl)indolin-1-yl)-2-oxoethyl)amino)-5-methoxyphenoxy)cyclobutene-carboxylic Acid]: the concentration for a half-maximal effect (EC50) in data set [1] (Dengue virus, DENV2, Vero, 72 h) stood at 0.093 nM. The SI in data set [1] was found to be 116424. Also, in data set [2], the CC50 amounted to 12 µM.

Take `COc1cc(NC(C(=O)N2CCc3cc(OC)c(C(F)(F)F)cc32)c2ccc(Cl)cc2)cc(OC2CC(C(=O)O)C2)c1` (stereo not drawn) [Compound 23A]: in data set [1], the EC50 amounted to 34 nM and the SI is on record as 321. In data set [2], this compound gave a CC50 of 11 µM.

For the origin of these results see patent US11407715B2, “Substituted indoline derivatives as dengue viral replication inhibitors” (JANSSEN PHARMACEUTICALS, INC., priority 2017, dated 2022).
